Here are results for 25 compounds from patent publication US20230049231A1 (priority 2019, published 2023).

SMILES strings stand for the structures. A value given as a limit tells only on which side of the number the result lay.

For orientation: IC50 means the concentration at which inhibition is half-maximal. A low value points to greater potency.

One assay addresses T1, hERG channel (Homo sapiens, UniProt Q12809).
T1 construct: expressed in transfected cells
Briefly: hERG electrophysiology, automated whole-cell patch clamp (Patchliner). In kind it is cell-based. As for the experimental part: This assay is used to evaluate the disclosed compounds' inhibition activities against the hERG channel.
CHO-K1 cells stably expressing hERG were grown in Ham's F-12 Medium with glutamine containing 10% heat-inactivated FBS, 1% penicillin/streptomycin, hygromycin (100 μg/ml) and G418 (100 μg/ml). Cells were grown in culture flasks at 37° C. in a 5% CO2-humidified incubator.
The cells were bathed in an extracellular solution containing 140 mM NaCl, 4 mM KCl, 2 mM CaCl2), 1 mM MgCl2, 5 mM glucose, and 10 mM HEPES; pH adjusted to 7.4 with NaOH; 295-305 mOsm. The internal solution contained 50 mM KCl, 10 mM NaCl, 60 mM KF, 20 mM EGTA, and 10 mM HEPES; pH adjusted to 7.2 with KOH; 285 mOsm. All compounds were dissolved in DMSO at 30 mM. Compound stock solutions were freshly diluted with external solution to concentrations of 30 nM, 100 nM, 300 nM, 1 μM, 3 μM, 10 μM, 30 μM and 100 μM. The highest content of DMSO (0.3%) was present in 100 μM.
The voltage protocol (see Table 3) was designed to simulate voltage changes during a cardiac action potential with a 300 ms depolarization to +20 mV (analogous to the plateau phase of the cardiac action potential), a repolarization for 300 ms to −50 mV (inducing a tail current) and a final step to the holding potential of −80 mV. The pulse frequency was 0.3 Hz. Control (compound-free) and compound pulse trains for each compound concentration applied contained 70 pulses.
Whole-cell current recordings and compound application were enabled by means of an automated patch clamp platform Patchliner (Nanion). EPC 10 patch clamp amplifier (HEKA) along with Patchmaster software (HEKA Elektronik Dr. Schulze GmbH) was used for data acquisition. Data were sampled at 10 kHz without filtering. Increasing compound concentrations were applied consecutively to the same cell without washouts in between.
AUC and PEAK values were obtained with Patchmaster (HEKA Elektronik Dr. Schulze GmbH). To determine IC50 the last single pulse in the pulse train corresponding to a given compound concentration was used. Obtained AUC and PEAK values in the presence of compound were normalized to control values in the absence of compound. Using Origin (OridinLab), IC50 was derived from data fit to Hill equation: Icompound/Icontrol=(100-A)/(1+([compound]/IC50)nH)+A, where IC50 is the concentration at which current inhibition is half-maximal, [compound] is the applied compound concentration, A is the fraction of current that is not blocked and nH is the Hill coefficient.
A general note: The hERG channel carries a current that helps repolarise heart muscle cells.

The target of another assay is T2, Kv1.3 potassium channel (Homo sapiens, UniProt P22001).
T2 construct: expressed in transfected cells
T2 sequence (P22001 whole entry): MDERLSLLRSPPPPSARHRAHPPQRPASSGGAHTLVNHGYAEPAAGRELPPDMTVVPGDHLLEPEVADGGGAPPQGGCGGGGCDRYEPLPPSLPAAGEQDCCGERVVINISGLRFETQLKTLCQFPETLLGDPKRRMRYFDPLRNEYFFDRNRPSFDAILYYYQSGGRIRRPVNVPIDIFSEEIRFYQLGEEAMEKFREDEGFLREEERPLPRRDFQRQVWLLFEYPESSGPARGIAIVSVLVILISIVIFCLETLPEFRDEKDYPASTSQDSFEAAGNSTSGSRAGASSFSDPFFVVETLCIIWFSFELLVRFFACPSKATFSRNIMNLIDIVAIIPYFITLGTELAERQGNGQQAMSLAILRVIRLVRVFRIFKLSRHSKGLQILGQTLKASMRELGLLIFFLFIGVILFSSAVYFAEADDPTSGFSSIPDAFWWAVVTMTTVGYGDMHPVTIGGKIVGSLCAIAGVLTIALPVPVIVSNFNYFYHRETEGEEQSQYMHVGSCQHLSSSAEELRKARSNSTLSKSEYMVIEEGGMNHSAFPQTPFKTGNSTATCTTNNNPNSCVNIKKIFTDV
Kind of assay: Kv1.3 potassium channel blocker activity, automated whole-cell patch clamp (Patchliner). The format is cell-based. In a few lines: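 IC50 came from Hill-equation fits of peak and AUC currents from the final pulse at each concentration, normalized to compound-free control. Compounds applied consecutively at 30 nM to 100 μM (up to 0.3% DMSO) to Kv1.3-expressing CHO-K1 cells, P/4 leak subtraction. Pulses were +40 mV, 100 ms, from −90 mV holding, at 0.1 Hz on Patchliner.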

Setting [1] is: hERG channel, whole-cell patch clamp.
Setting [2] is: Kv1.3 potassium channel, whole-cell patch clamp.
The mark [3] stands for this setting: CHO-K1 cells stably expressing hERG, +20 mV 300 ms, -50 mV 300 ms tail current, 0.3 Hz.
[4] abbreviates: CHO-K1 cells stably expressing Kv1.3, 100 ms pulses from -90 mV to +40 mV, 0.1 Hz.

T1 sequence (Q12809 whole entry): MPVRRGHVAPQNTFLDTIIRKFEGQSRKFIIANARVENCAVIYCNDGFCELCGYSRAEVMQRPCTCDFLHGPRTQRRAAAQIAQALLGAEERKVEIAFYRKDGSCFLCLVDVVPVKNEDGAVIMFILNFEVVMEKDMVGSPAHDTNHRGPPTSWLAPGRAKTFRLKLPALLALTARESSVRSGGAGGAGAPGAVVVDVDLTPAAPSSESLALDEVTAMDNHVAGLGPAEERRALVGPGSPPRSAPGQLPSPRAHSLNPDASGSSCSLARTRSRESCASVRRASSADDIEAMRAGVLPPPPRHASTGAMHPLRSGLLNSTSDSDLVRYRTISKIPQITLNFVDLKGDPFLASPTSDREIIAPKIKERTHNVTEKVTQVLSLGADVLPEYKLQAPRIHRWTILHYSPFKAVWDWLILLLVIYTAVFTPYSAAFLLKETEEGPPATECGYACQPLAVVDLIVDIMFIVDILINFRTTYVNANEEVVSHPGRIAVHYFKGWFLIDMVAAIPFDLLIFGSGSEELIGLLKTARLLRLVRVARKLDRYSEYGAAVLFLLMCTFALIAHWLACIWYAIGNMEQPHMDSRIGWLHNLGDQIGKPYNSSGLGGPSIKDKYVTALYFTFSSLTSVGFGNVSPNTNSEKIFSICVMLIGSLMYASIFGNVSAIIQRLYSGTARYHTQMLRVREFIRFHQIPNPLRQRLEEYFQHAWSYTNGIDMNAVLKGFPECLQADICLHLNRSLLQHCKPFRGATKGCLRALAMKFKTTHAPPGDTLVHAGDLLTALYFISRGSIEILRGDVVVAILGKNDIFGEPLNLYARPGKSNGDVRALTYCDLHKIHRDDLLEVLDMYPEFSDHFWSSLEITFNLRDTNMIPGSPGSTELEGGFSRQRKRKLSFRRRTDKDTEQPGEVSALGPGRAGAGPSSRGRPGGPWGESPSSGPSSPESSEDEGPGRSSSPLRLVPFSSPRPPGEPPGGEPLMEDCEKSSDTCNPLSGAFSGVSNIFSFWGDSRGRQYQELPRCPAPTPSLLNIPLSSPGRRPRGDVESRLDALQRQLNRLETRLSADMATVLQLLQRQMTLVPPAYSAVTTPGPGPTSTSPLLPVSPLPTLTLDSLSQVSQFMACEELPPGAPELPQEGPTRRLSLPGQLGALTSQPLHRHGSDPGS

For `CC(C)(O)[C@@H]1OC(=O)N2C[C@@H](c3c(O)ccc(Cl)c3Cl)C[C@@H]12` (single isomer, unassigned) [Compound 256], the 50% inhibitory concentration (IC50) is more than 30 µM against hERG channel (setting [1]) and less than 1 µM against Kv1.3 potassium channel (setting [2]).

Take `O=C([C@@H](O)CO)N1CC(=O)N2CC[C@@H](c3c(O)ccc(Cl)c3Cl)C[C@H]2C1` [Compound 23, (8R,9aS)-8-(2,3-dichloro-6-hydroxyphenyl)-2-[(2S)-2,3-dihydroxypropanoyl]-hexahydro-1H-pyrido[1,2-a]pyrazin-4-one]: the IC50 at hERG channel (setting [3]) is more than 30 µM; against Kv1.3 potassium channel (setting [4]) it was less than 1 µM.

Consider `NC(=O)N1CC(=O)N2C[C@@H](c3c(O)ccc(Cl)c3Cl)C[C@H]2C1` [Compound 55, (7R,8aS)-7-(2,3-dichloro-6-hydroxyphenyl)-4-oxo-hexahydropyrrolo[1,2-a]pyrazine-2-carboxamide], for which the half-inhibitory concentration (IC50) is more than 30 µM at hERG channel (setting [3]) and less than 1 µM against Kv1.3 potassium channel (setting [4]).

For `O=C1CN(C(CO)CO)C[C@@H]2C[C@H](c3c(O)ccc(Cl)c3Cl)CN12` [Compound 124, (7R,8aS)-7-(2,3-dichloro-6-hydroxyphenyl)-2-(1,3-dihydroxypropan-2-yl)-hexahydropyrrolo [1,2-a]pyrazin-4-one], the concentration for half-maximal inhibition (IC50) is more than 30 µM on hERG channel (setting [1]) and less than 1 µM against Kv1.3 potassium channel (setting [2]).

Take `NCC1OC[C@@H]2C[C@H](c3c(O)ccc(Cl)c3Cl)CCN2C1=O` (stereo partly drawn) [Compound 180, (8R,9aS)-3-(aminomethyl)-8-(2,3-dichloro-6-hydroxyphenyl)-hexahydro-1H-pyrido[2,1-c][1,4]oxazin-4-one]: the figures for the half-maximal inhibitory concentration (IC50) at hERG channel (setting [1]) and against Kv1.3 potassium channel (setting [2]) were less than 30 µM and less than 1 µM, respectively.

For the compound `O=C1C[C@H](O)[C@H](O)[C@@H]2C[C@H](c3c(O)ccc(Cl)c3Cl)CN12` (relative stereo) [Compound 225, (7S,8R)-rel-(2R, 8aS)-2-(2,3-dichloro-6-hydroxyphenyl)-7,8-dihydroxy-hexahydro-1H-indolizin-5-one], the IC50 against hERG channel (setting [1]) was more than 30 µM; against Kv1.3 potassium channel (setting [2]) it was less than 1 µM.

For `O=C1CC(CN2CCNCC2)C[C@@H]2C[C@H](c3c(O)ccc(Cl)c3Cl)CN12` (stereo partly drawn) [Compound 241, (2R,8aR)-2-(2,3-dichloro-6-hydroxyphenyl)-7-(piperazin-1-ylmethyl)-hexahydro-1H-indolizin-5-one], the concentration for half-maximal inhibition (IC50) at hERG channel (setting [1]) was more than 30 µM; on Kv1.3 potassium channel (setting [2]), less than 1 µM.

Take `C[C@H](C1CNC1)N1CC(=O)N2C[C@@H](c3c(O)ccc(Cl)c3Cl)C[C@H]2C1` (single isomer, unassigned; isomer 2) [Compound 138]: the half-inhibitory concentration (IC50) at hERG channel (setting [1]) was more than 30 µM; against Kv1.3 potassium channel (setting [2]), less than 1 µM.

Turning to `O=C1CN(CC2(O)CNC2)C[C@@H]2C[C@H](c3c(O)ccc(Cl)c3Cl)CN12` [Compound 157, (7R,8aS)-7-(2,3-dichloro-6-hydroxyphenyl)-2-[(3-hydroxyazetidin-3-yl)methyl]-hexahydropyrrolo[1,2-a]pyrazin-4-one;], the 50% inhibitory concentration (IC50) against hERG channel (setting [1]) was more than 30 µM; against Kv1.3 potassium channel (setting [2]), less than 1 µM.

For the compound `O=C([C@@H](O)CO)N1CC(=O)N2C[C@@H](c3c(O)ccc(Cl)c3Cl)C[C@H]2C1` [Compound 34, (7R,8aS)-7-(2,3-dichloro-6-hydroxyphenyl)-2-[(2S)-2,3-dihydroxypropanoyl]-hexahydropyrrolo [1,2-a]pyrazin-4-one], the concentration for half-maximal inhibition (IC50) against hERG channel (setting [3]) is more than 30 µM; against Kv1.3 potassium channel (setting [4]), less than 1 µM.

As to `COC[C@@H](CO)N1CC(=O)N2C[C@@H](c3c(O)ccc(Cl)c3Cl)C[C@H]2C1` (single isomer, unassigned; isomer 2) [Compound 119], the IC50 against hERG channel (setting [1]) is more than 30 µM; on Kv1.3 potassium channel (setting [2]), less than 1 µM.

Regarding `O=C1C[C@@H](N2CC[C@H](O)C2)C[C@@H]2C[C@H](c3c(O)ccc(Cl)c3Cl)CN12` (single isomer, unassigned) [Compound 194], the IC50 was more than 30 µM against hERG channel (setting [1]) and less than 1 µM against Kv1.3 potassium channel (setting [2]).

For the compound `O=C1CN([C@H]2COC[C@@H]2O)C[C@@H]2C[C@H](c3c(O)ccc(Cl)c3Cl)CN12` (relative stereo) [Compound 154, (7R,8aS)-7-(2,3-dichloro-6-hydroxyphenyl)-2-[(3S,4R)-rel-4-hydroxyoxolan-3-yl]-hexahydropyrrolo [1,2-a]pyrazin-4-one], the values for the IC50 against hERG channel (setting [1]) and against Kv1.3 potassium channel (setting [2]) were more than 30 µM and less than 1 µM, respectively.

Take `O=C1CCC[C@@H]2C[C@H](c3c(O)ccc(Cl)c3Cl)CN12` [Compound 223, (2R,8aR)-2-(2,3-dichloro-6-hydroxyphenyl)-hexahydro-1H-indolizin-5-one]: the results for the concentration for half-maximal inhibition (IC50) against hERG channel (setting [1]) and on Kv1.3 potassium channel (setting [2]) were more than 30 µM and less than 1 µM, respectively.

As for `CC1[C@@H]2C[C@H](c3c(O)ccc(Cl)c3Cl)CCN2C(=O)CN1C(=O)CO` (stereo partly drawn) [Compound 25, (8R,9aS)-8-(2,3-dichloro-6-hydroxypheny1)-2-(2-hydroxyacetyl)-1-methyl-hexahydro-1H-pyrido[1,2-a]pyrazin-4-one], the IC50 against hERG channel (setting [3]) is more than 30 µM; against Kv1.3 potassium channel (setting [4]), less than 1 µM.

For the compound `O=C(N1CC(CO)C1)N1CC(=O)N2C[C@@H](c3c(O)ccc(Cl)c3Cl)C[C@H]2C1` [Compound 103, (7R,8aS)-7-(2,3-dichloro-6-hydroxypheny1)-2-[3-(hydroxymethyl)azetidine-1-carbonyl]-hexahydropyrro[1,2-a]pyrazine-4-one], the 50% inhibitory concentration (IC50) at hERG channel (setting [1]) was more than 30 µM; on Kv1.3 potassium channel (setting [2]) it was less than 1 µM.

Take `CC[C@@H](O)C(=O)N1CC(=O)N2CC[C@@H](c3c(O)ccc(Cl)c3Cl)C[C@H]2C1` [Compound 21, (8R,9aS)-8-(2,3-dichloro-6-hydroxyphenyl)-2-[(2R)-2-hydroxybutanoyl]-hexahydro-1H-pyrido[1,2-a]pyrazin-4-one]: the half-maximal inhibitory concentration (IC50) was less than 30 µM at hERG channel (setting [3]) and less than 1 µM against Kv1.3 potassium channel (setting [4]).

For the compound `O=C1O[C@@H](CO)C[C@@H]2C[C@H](c3c(O)ccc(Cl)c3Cl)CN12` (single isomer, unassigned) [Compound 269], the concentration for half-maximal inhibition (IC50) against hERG channel (setting [1]) is more than 30 µM; against Kv1.3 potassium channel (setting [2]), less than 1 µM.

Regarding `O=C(C(CO)CO)N1CC(=O)N2C[C@@H](c3c(O)ccc(Cl)c3Cl)C[C@H]2C1` [Compound 65, (7R,8aS)-7-(2,3-dichloro-6-hydroxyphenyl)-2-[3-hydroxy-2-(hydroxymethyl)propanoyl]-hexa-hydropyrrolo[1,2-a]pyrazin-4-one], the IC50 at hERG channel (setting [1]) is more than 30 µM; at Kv1.3 potassium channel (setting [2]) it was less than 1 µM.

Take `O=C1CN(C2CNC2)C[C@@H]2C[C@H](c3c(O)ccc(Cl)c3Cl)CN12` [Compound 129, (7R,8aS)-2-(azetidin-3-yl)-7-(2,3-dichloro-6-hydroxyphenyl)-hexahydropyrrolo [1,2-a]pyrazin-4-one]: the IC50 at hERG channel (setting [1]) is more than 30 µM; on Kv1.3 potassium channel (setting [2]), less than 1 µM.

Regarding `NC(=O)[C@H]1OC(=O)N2C[C@@H](c3c(O)ccc(Cl)c3Cl)C[C@@H]12` (single isomer, unassigned) [Compound 287], the results for the half-maximal inhibitory concentration (IC50) against hERG channel (setting [1]) and against Kv1.3 potassium channel (setting [2]) were more than 30 µM and less than 1 µM, respectively.

As for `O=C1CN(C[C@@H]2CNCCO2)C[C@@H]2C[C@H](c3c(O)ccc(Cl)c3Cl)CN12` [Compound 146, (7R,8aS)-7-(2,3-dichloro-6-hydroxyphenyl)-2-[(2S)-morpholin-2-ylmethyl]-hexahydropyrrolo [1,2-a]pyrazin-4-one], the IC50 is more than 30 µM against hERG channel (setting [1]) and less than 1 µM at Kv1.3 potassium channel (setting [2]).

In the case of `O=C1CN(CCN2CCNCC2)C[C@@H]2C[C@H](c3c(O)ccc(Cl)c3Cl)CN12` [Compound 120, (7R,8aS)-7-(2,3-dichloro-6-hydroxyphenyl)-2-[2-(piperazin-1-yl)ethyl]-hexahydropyrrolo [1,2-a]pyrazin-4-one], the IC50 against hERG channel (setting [1]) is more than 30 µM; on Kv1.3 potassium channel (setting [2]), less than 1 µM.

As to `C[C@H](O)[C@H]1OC(=O)N2C[C@@H](c3c(O)ccc(Cl)c3Cl)C[C@@H]12` (single isomer, unassigned) [Compound 258], the half-maximal inhibitory concentration (IC50) was more than 30 µM against hERG channel (setting [1]) and less than 1 µM against Kv1.3 potassium channel (setting [2]).

For the compound `O=C1CN([C@H]2C[C@@H](O)[C@@H](O)C2)C[C@@H]2C[C@H](c3c(O)ccc(Cl)c3Cl)CN12` (relative stereo) [Compound 130, (7R,8aS)-7-(2,3-dichloro-6-hydroxyphenyl)-2-[(1R,3R,4S)-rel-3,4-dihydroxycyclopentyl]-hexahydropyrrolo [1,2-a]pyrazin-4-one], the half-maximal inhibitory concentration (IC50) was more than 30 µM at hERG channel (setting [1]) and less than 1 µM at Kv1.3 potassium channel (setting [2]).
